Source: patent US11673898B2, “Substituted inhibitors of menin-MLL and methods of use” (Kura Oncology, Inc., priority 2016, dated 2023)

Assays:
MLL-AF9 BMC = test: Cell proliferation assay (CellTiter-Glo); format: cell-based
Method: Example 9: Cell proliferation assay. The ability of a compound of the present disclosure to inhibit the growth of cells, such as human leukemia cell, acute myeloid leukemia cell, cells with an MLL fusion, control cells without an MLL fusion, VCaP, LNCaP, 22RV1, DU145, LNCaP-AR, MV4; 11, KOPN-8, ML-2, MOLM-13, RS4; 11, SEM, bone marrow cells (BMCs), MLL-AF9, MLL-AF4, MLL-ENL, MLL-CBP, MLL-GAS7, MLL-AF1p, MLL-AF6, HM-2, E2A-HLF, REH, U937, K562, KG-1, HL-60 and NB4 cells, is tested using a cell viability assay, such as the Promega CellTiter-Glo® Luminescent Cell Viability Assay (Promega Technical Bulletin, 2015, “CellTiter-Glo® Luminescent Cell Viability Assay”: 1-15, herein incorporated by reference in its entirety). Cells are plated at relevant concentrations, for example about 1×10^5-2×10^5 cells per well in a 96-well plate. A compound of the present disclosure is added at a concentration up to about 2 μM with eight, 2-fold serial dilutions for each compound. Cells are incubated at 37° C. for a period of time, for example, 72 hours, then cells in the control wells are counted. Media is changed to restore viable cell numbers to the original concentration, and compounds are re-supplied. Proliferation is measured about 72 hours later using Promega CellTiter-Glo® reagents, as per kit instructions.

Menin MLL 4-43 = target: T1, Menin MLL 4-43 (Homo sapiens, UniProt O00255); test: Fluorescence polarization (FP) competition assay of the menin-MLL interaction; format: binding; details: fluorescence polarization assay; read-out: Menin MLL 4-43 IC50
T1 sequence (O00255 1-610): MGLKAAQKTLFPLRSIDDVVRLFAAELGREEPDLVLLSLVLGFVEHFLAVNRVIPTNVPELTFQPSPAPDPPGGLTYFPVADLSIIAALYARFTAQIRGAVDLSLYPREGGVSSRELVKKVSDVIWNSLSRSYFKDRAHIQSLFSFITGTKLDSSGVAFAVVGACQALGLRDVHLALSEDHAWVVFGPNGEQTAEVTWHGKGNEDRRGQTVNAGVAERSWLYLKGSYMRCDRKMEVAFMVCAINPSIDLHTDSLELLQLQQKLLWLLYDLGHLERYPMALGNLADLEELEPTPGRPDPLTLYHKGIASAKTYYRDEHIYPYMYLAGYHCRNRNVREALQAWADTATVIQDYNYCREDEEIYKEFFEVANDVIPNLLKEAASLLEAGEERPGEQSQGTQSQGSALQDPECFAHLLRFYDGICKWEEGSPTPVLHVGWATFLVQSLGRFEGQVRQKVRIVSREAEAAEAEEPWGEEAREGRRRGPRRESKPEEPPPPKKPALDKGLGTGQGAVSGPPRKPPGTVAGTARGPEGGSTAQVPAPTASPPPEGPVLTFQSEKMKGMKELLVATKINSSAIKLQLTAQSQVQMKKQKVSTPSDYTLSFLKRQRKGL

Compound | GI50 (MLL-AF9 BMC) [nM] | IC50 (Menin MLL 4-43) [nM]
Cc1c(CN2CCC(Nc3ncnc4sc(CC(F)(F)F)cc34)CC2)ccc2c1cc(C#N)n2C[C@@H](C)N1CCN(S(C)(=O)=O)CC1 [Compound 9] | 250 to 1000 | > 1000
Cc1c(CN2CCC(Nc3ncnc4sc(CC(F)(F)F)cc34)CC2)ccc2c1cc(C#N)n2C[C@H](C)N1CCN(S(C)(=O)=O)CC1 [Compound 10] | 10 to 50 | < 50
Cc1c(CN2CCC(Nc3ncnc4sc(CC(F)(F)F)cc34)CC2)ccc2c1cc(C#N)n2CC(C)N1CCN(S(C)(=O)=O)C(C(N)=O)C1 (stereo not drawn) [Compound 80] | 10 to 50 | < 50
CNS(=O)(=O)N1CCN([C@@H](C)Cn2c(C#N)cc3c(C)c(CN4CCC(Nc5nc(N)nc6sc(CC(F)(F)F)cc56)CC4)ccc32)CC1 [Compound 132] | < 10 | < 50
Cc1c(CN2CCC(Nc3nc(N)nc4sc(CC(F)(F)F)cc34)CC2)ccc2c1cc(C#N)n2C[C@H](C)N1CCN(S(C)(=O)=O)CC1 [Compound 135] | < 10 | < 50
Cc1nc(NC2CCN(Cc3ccc4c(cc(C#N)n4C[C@H](C)N4CCN(S(C)(=O)=O)CC4)c3C)CC2)c2cc(CC(F)(F)F)sc2n1 [Compound 138] | 10 to 50 | < 50
CNS(=O)(=O)N1CCN([C@@H](C)Cn2c(C#N)cc3c(C)c(CN4CCC(Nc5nc(C)nc6sc(CC(F)(F)F)cc56)CC4)ccc32)CC1 [Compound 139] | 10 to 50 | < 50
CNc1nc(NC2CCN(Cc3ccc4c(cc(C#N)n4C[C@H](C)N4CCN(S(C)(=O)=O)CC4)c3C)CC2)c2cc(CC(F)(F)F)sc2n1 [Compound 151] | < 10 | 
Cc1c(CN2CCC(Nc3ncnc4sc(CC(F)(F)F)cc34)CC2)ccc2c1cc(C#N)n2C[C@H](C)N1CCN(S(C)(=O)=O)[C@H](C(N)=O)C1 [Compound 163] | < 10 | < 50
CCc1nc(NC2CCN(Cc3ccc4c(cc(C#N)n4C[C@H](C)N4CCN(S(C)(=O)=O)CC4)c3C)CC2)c2cc(CC(F)(F)F)sc2n1 [Compound 171] | 10 to 50 | 50 to 250
C[C@@H](Cn1c(C#N)cc2cc(CN3CCC(Nc4nc(N)nc5sc(CC(F)(F)F)cc45)CC3)c(O)cc21)N1CCN(S(C)(=O)=O)CC1 [Compound 172] | < 10 | < 50
CCNc1nc(NC2CCN(Cc3ccc4c(cc(C#N)n4C[C@H](C)N4CCN(S(C)(=O)=O)CC4)c3C)CC2)c2cc(CC(F)(F)F)sc2n1 [Compound 174] | 10 to 50 | 50 to 250
Cc1c(CN2CCC(Nc3nc(N)nc4sc(CC(F)(F)F)cc34)CC2)ccc2c1cc(C#N)n2C[C@H](C)N1CCN(CC(N)=O)CC1 [Compound 175] | 10 to 50 | < 50
CNC(=O)CN1CCN([C@@H](C)Cn2c(C#N)cc3c(C)c(CN4CCC(Nc5nc(N)nc6sc(CC(F)(F)F)cc56)CC4)ccc32)CC1 [Compound 176] | 10 to 50 | < 50
CNS(=O)(=O)N1CCN([C@@H](C)Cn2c(C#N)cc3cc(CN4CCC(Nc5nc(N)nc6sc(CC(F)(F)F)cc56)CC4)c(O)cc32)CC1 [Compound 177] | < 10 | < 50
Cc1c(CN2CCC(Nc3nc(N)nc4sc(CC(F)(F)F)cc34)CC2)ccc2c1cc(C#N)n2C[C@H](C)N1CCN(CC(=O)N(C)C)CC1 [Compound 181] | 10 to 50 | < 50
COc1nc(NC2CCN(Cc3ccc4c(cc(C#N)n4C[C@H](C)N4CCN(S(C)(=O)=O)CC4)c3C)CC2)c2cc(CC(F)(F)F)sc2n1 [Compound 183] | < 10 | < 50
CNc1nc(NC2CCN(Cc3ccc4c(cc(C#N)n4C[C@H](C)N4CCC(C)(C#N)CC4)c3C)CC2)c2cc(CC(F)(F)F)sc2n1 [Compound 199] | < 10 | 50 to 250
CNc1nc(NC2CCN(Cc3ccc4c(cc(C#N)n4C[C@H](C)N4CCS(=O)(=O)CC4)c3C)CC2)c2cc(CC(F)(F)F)sc2n1 [Compound 203] | < 10 | < 50
CNS(=O)(=O)N1CCN([C@@H](C)Cn2c(C#N)cc3c(C)c(CN4CCC(Nc5nc(OC)nc6sc(CC(F)(F)F)cc56)CC4)ccc32)CC1 [Compound 205] | < 10 | < 50
